In general, inhibition refers to the relative decrease from the control value, in per cent.

SMILES strings stand for the structures. Calls of active or inactive are those of the source. The rule behind the calls is not given here.

We go through nine compounds from ChEMBL document CHEMBL1817580, “Chemical modifications of resveratrol for improved protein kinase C alpha activity” (Bioorg Med Chem, 2011).

In data set [1] the target is Protein kinase C alpha type (Homo sapiens) (UniProt P17252). The experiment in a line: Binding affinity to recombinant C1B domain of PKCalpha expressed in Escherichia coli BL21 (DE3) after 45 mins by fluorescence quenching assay.
Data set [2] shares this target. The experiment in a line: Inhibition of TPA-induced membrane translocation of PKCalpha expressed in HEK293 cells assessed as protein found in membrane fraction at 100 uM after 2 hrs by Western blotting relative to TPA. In kind it is cell-based. The arrangement: scale not given: the % may be the effect or the level left. In general terms: A western blot detects proteins with antibodies after separation by electrophoresis.

Data set [3] shares this target. As to the kind of experiment: Inhibition of membrane translocation of PKCalpha expressed in HEK293 cells at 100 uM after 2 hrs by Western blotting. In kind it is cell-based.
Data set [4] has as its system HEK293. The experiment in a line: Cytotoxicity against HEK293 cells assessed as decrease in cell viability at 100 uM after 48 hrs by MTT assay relative to control. In kind it is cell-based. Particulars: human, hek293, 48 h. (In general: Tetrazolium dyes change colour on reduction, which living cells bring about.)
For data set [5], the target named is Protein kinase C alpha type (Homo sapiens) (UniProt P17252). As to the kind of experiment: Inhibition of membrane translocation of PKCalpha expressed in HEK293 cells assessed as increase of protein found in membrane fraction at 100 uM after 2 hrs by Western blotting relative to resveratrol. The arrangement: scale not given: the % may be the effect or the level left. In kind it is cell-based.

Data set [6] relates to HEK293. As to the kind of experiment: Cytotoxicity against HEK293 cells assessed as increase in cell viability at 100 uM after 48 hrs by MTT assay relative to resveratrol. Particulars: human, hek293, 48 h. In kind it is cell-based.

With `Oc1ccc(/C=C/c2cc(O)cc(O)c2)cc1` [RESVERATROL], the outcome in data set [1] was Active. The Activity in data set [2] worked out at 60%; in the data set on HEK293 [4], 20%. The compound also displayed an inhibition in data set [3] of 5%.

Regarding `CCCCCCCCOc1cc(/C=C/c2ccc(O)cc2)cc(OCCCCCCCC)c1`, the results for the Activity in data set [2] and in data set [5] were 65.7% and 20%, respectively. The “fold change (FC)” value in the data set on HEK293 [6] is 4.

As for `COc1cc(/C=C/c2cc(OC)c(OC)c(OC)c2)cc(OC)c1OC`, the Activity worked out at 44.8% in data set [2] and 20% in data set [5]. For the same compound, the “fold change (FC)” value in the data set with HEK293 [6] amounted to 2.

On to `COc1ccc(/C=C/c2cc(OC)cc(OC)c2)cc1` [TRISMETHOXYRESVERATROL], for which, in data set [1], the result was Active. For the same compound, the Activity worked out at 31.9% in data set [2] and 20% in data set [5]. In addition, the “fold change (FC)” value in the data set with HEK293 [6] was 4.

`CCCCCCCCCCCCCCCCOc1cc(/C=C/c2ccc(O)cc2)cc(OCCCCCCCCCCCCCCCC)c1`: the Activity in data set [2] worked out at 78.8%; in data set [5], 20%. Also, the “fold change (FC)” value in the data set on HEK293 [6] came out at 2.

With `CCCCCCCCCCCCCCCCOc1c(O)cc(/C=C/c2cc(O)c(O)c(O)c2)cc1O`, the Activity in data set [2] amounted to 68.3%; in data set [5], 20%; in the data set with HEK293 [6], 25%.

Turning to `CCCCCCCCCCCCCCCCOc1ccc(/C=C/c2cc(O)cc(O)c2)cc1`, in data set [1], the outcome was Active. In addition, the Activity in data set [2] is 79.8%; in data set [5], 20%. Moreover, the “fold change (FC)” value with HEK293 [6] is given as 2.

`Oc1cc(/C=C/c2cc(O)c(O)c(O)c2)cc(O)c1O`: the outcome in data set [1] was Active. For the same compound, the Activity came to 29.8% in data set [2], 20% in data set [5] and 25% in the data set with HEK293 [6].

Regarding `CCCCCCCCOc1ccc(/C=C/c2cc(O)cc(O)c2)cc1`, the values for the Activity in data set [2] and in data set [5] were 85.2% and 20%, respectively. Moreover, the “fold change (FC)” value in the data set on HEK293 [6] stood at 4.
